Remaining activity data for 30 compounds are collected here from publication PMC8286840, “Identifying SARS-CoV-2 antiviral compounds by screening for small molecule inhibitors of Nsp3 papain-like protease” (Biochemical Journal, 2021).

Counter-ions that a name gives are not always drawn. Like-named read-outs stand apart in the source and are kept apart here. Where a SMILES comes first, the peptide text is derived from it. Bridges are numbered along the chain shown (N, C = ends).

The target of experiment [1] is T1, SARS-CoV-2 PLpro (nsp3 1564–1878) (Severe acute respiratory syndrome coronavirus 2, UniProt P0DTD1). The experiment in a line: biochemical. On the set-up: FRET-quenched peptide (Pro3) cleavage by PLpro, 10 min pre-incubation, slope over 20 min, normalised to no-compound control. The note with it: low concentration screen, read-out: % of control remaining.
The target of experiment [2] is T1, SARS-CoV-2 PLpro (nsp3 1564–1878). The experiment can be described thus: biochemical. On the set-up: FRET-quenched peptide (Pro3) cleavage by PLpro, 10 min pre-incubation, slope over 20 min, normalised to no-compound control. Particulars: high concentration screen, read-out: % of control remaining.
Experimental: The plates were organized with columns 3–22 containing the compounds; the remaining columns were used for reaction controls including substrate only and substrate with enzyme but no compound (Figure 3Aii). The PLpro enzyme was pre-incubated with the compounds for 10 min, and then the reaction was initiated by the addition of substrate. […] We incubated the inhibitors with PLpro before the enzymatic reaction so that the slow-binding inhibitors will not be missed out [21]. […] Fluorescence was read on a Spark multimode microplate reader (Tecan) with an excitation wavelength at 330 nm and emission wavelength at 420 nm. […] An amount of 5 µl of the enzyme was pre-incubated with compounds for 10 min before the addition of 15 µl substrate. Fluorescence was monitored at 2 min for 20 min with 3 min intervals giving a total of seven readings.

As to `NCCCC[C@H](NC(=O)[C@@H]1CCCN1C(=O)[C@@H]1CSSC[C@H](NC(=O)CNC(=O)CNC(=O)CN)C(=O)N[C@@H](Cc2ccc(O)cc2)C(=O)N[C@@H](Cc2ccccc2)C(=O)N[C@@H](CCC(N)=O)C(=O)N[C@@H](CC(N)=O)C(=O)N1)C(=O)NCC(N)=O` [Terlipressin] (H-GGGCYFQNCPKG-NH2; disulfide 4-9), the remaining activity at 1.25 µM in experiment [1] (Well no.=8103) turned out to be 106%. Further, in experiment [2] (Well no.=8103), the remaining activity at 3.75 µM was found to be 104%.
Turning to `CC(CC(c1ccccc1)c1ccccc1)NC(C)(C)C` (centres unmarked) [Terodiline hydrochloride], the remaining activity at 1.25 µM in experiment [1] (Well no.=5438) worked out at 94.4%. Also, the remaining activity at 3.75 µM in experiment [2] (Well no.=5438) worked out at 99.3%.
Regarding `Cc1ccc2c(c1CCC(=O)O)CC[C@@H](NS(=O)(=O)c1ccc(Cl)cc1)C2` [Terutroban], in experiment [1] (Well no.=7149), the remaining activity at 1.25 µM stood at 93.3%. In addition, the remaining activity at 3.75 µM in experiment [2] (Well no.=7149) came out at 94.2%.
Consider `COc1cc2c(cc1OC)[C@H]1CC(=O)[C@H](CC(C)C)CN1CC2` [Tetrabenazine], for which, in experiment [1] (Well no.=7492), the remaining activity at 1.25 µM stood at 94.6%. In addition, the remaining activity at 3.75 µM in experiment [2] (Well no.=7492) is 94.7%.
As for `CCCCNc1ccc(C(=O)OCCN(C)C)cc1` [Tetracaine hydrochloride], the remaining activity at 1.25 µM in experiment [1] (Well no.=1228) came out at 97.1%. Besides, in experiment [2] (Well no.=1228), the remaining activity at 3.75 µM was determined as 97.5%.
Regarding `CCCCCCCCCCCCCCCCCCCCCCCC(=O)O` [Tetracosanoic acid], in experiment [1] (Well no.=4502), the remaining activity at 1.25 µM turned out to be 92.1%. For the same compound, the remaining activity at 3.75 µM in experiment [2] (Well no.=4502) worked out at 94.2%.
Take `CN(C)[C@@H]1C(O)=C(C(N)=O)C(=O)[C@@]2(O)C(O)=C3C(=O)c4c(O)cccc4[C@@](C)(O)[C@H]3C[C@@H]12` [Tetracycline]: the remaining activity at 1.25 µM in experiment [1] (Well no.=1948) is 95.4%. In experiment [2] (Well no.=1948), the remaining activity at 3.75 µM was determined as 93.7%.
Turning to `CCCCCCCCCCCCCC(=O)O` [Tetradecanoic acid], the remaining activity at 1.25 µM in experiment [1] (Well no.=4266) turned out to be 102%. Also, the remaining activity at 3.75 µM in experiment [2] (Well no.=4266) came out at 95.8%.
On to `CC[N+](CC)(CC)CC` [Tetraethylammonium chloride], for which the remaining activity at 1.25 µM in experiment [1] (Well no.=1475) was 93.2%. For the same compound, the remaining activity at 3.75 µM in experiment [2] (Well no.=1475) turned out to be 89%.
As for `COc1ccc2c(c1OC)CN1CCc3cc4c(cc3C1C2)OCO4` (centres unmarked) [Tetrahydroberberine], in experiment [1] (Well no.=6656), the remaining activity at 1.25 µM worked out at 97.9%. Further, the remaining activity at 3.75 µM in experiment [2] (Well no.=6656) came to 99.7%.
With `C[C@H](O)[C@H](O)[C@H]1CNc2nc(N)[nH]c(=O)c2N1` [Tetrahydrobiopterin], in experiment [1] (Well no.=6159), the remaining activity at 1.25 µM stood at 108%. In experiment [2] (Well no.=6159), the remaining activity at 3.75 µM is 109%.
As for `COc1cc(CCC(=O)CC(=O)CCc2ccc(O)c(OC)c2)ccc1O` [Tetrahydrocurcumin], the remaining activity at 1.25 µM in experiment [1] (Well no.=6199) was determined as 104%. The remaining activity at 3.75 µM in experiment [2] (Well no.=6199) came to 107%.
For `COc1ccc(CC2NCCc3cc(OC)c(OC)cc32)cc1OC` (centres unmarked) [Tetrahydropapaverine HCl], in experiment [1] (Well no.=8290), the remaining activity at 1.25 µM worked out at 99.5%. Moreover, in experiment [2] (Well no.=8290), the remaining activity at 3.75 µM stood at 98%.
`c1ccc2c(c1)CCCC2C1=NCCN1` (centres unmarked) [Tetrahydrozoline (hydrochloride)]: in experiment [1] (Well no.=8099), the remaining activity at 1.25 µM stood at 96.6%. In addition, the remaining activity at 3.75 µM in experiment [2] (Well no.=8099) is 91.5%.
As to `c1ccc2c(c1)CCCC2C1=NCCN1` (centres unmarked) [Tetrahydrozoline hydrochloride], in experiment [1] (Well no.=1239), the remaining activity at 1.25 µM was 103%. The remaining activity at 3.75 µM in experiment [2] (Well no.=1239) amounted to 103%.
For `CC(C)NP(=O)(NC(C)C)OP(=O)(NC(C)C)NC(C)C` [Tetraisopropyl pyrophosphoramide], the remaining activity at 1.25 µM in experiment [1] (Well no.=1473) was 103%. The remaining activity at 3.75 µM in experiment [2] (Well no.=1473) came out at 100%.
Turning to `Cc1nc(C)c(C)nc1C` [Tetramethylpyrazine], the remaining activity at 1.25 µM in experiment [1] (Well no.=4143) was 98.6%. Moreover, in experiment [2] (Well no.=4143), the remaining activity at 3.75 µM worked out at 97.4%.
Turning to `c1ccc(C2CN3CCSC3=N2)cc1` (centres unmarked) [Tetramisole hydrochloride], the remaining activity at 1.25 µM in experiment [1] (Well no.=1521) stood at 99.3%. For the same compound, in experiment [2] (Well no.=1521), the remaining activity at 3.75 µM is 100%.
Consider `COc1ccc2cc1Oc1ccc(cc1)C[C@H]1c3cc(c(OC)cc3CCN1C)Oc1c(OC)c(OC)cc3c1[C@H](C2)N(C)CC3` [Tetrandrine], for which the remaining activity at 1.25 µM in experiment [1] (Well no.=3182) was 103%. For the same compound, the remaining activity at 3.75 µM in experiment [2] (Well no.=3182) was found to be 99.4%.
Consider `CCCCC/C=C\C[C@@H](O)/C=C/C=C\CCC(=O)O` [Tetranor-12(R)-HETE], for which the remaining activity at 1.25 µM in experiment [1] (Well no.=4563) is 97%. For the same compound, the remaining activity at 3.75 µM in experiment [2] (Well no.=4563) is 97.6%.
Turning to `O=C1CCC(N2C(=O)c3ccccc3C2=O)C(=O)N1` (centres unmarked) [Thalidomide], in experiment [1] (Well no.=2261), the remaining activity at 1.25 µM was found to be 98.2%. In experiment [2] (Well no.=2261), the remaining activity at 3.75 µM came to 102%.
For the compound `C/C=C(/C)C(=O)O[C@H]1C(C)=C2[C@H]([C@@H]1OC(=O)CCCCCCC)[C@@](C)(OC(C)=O)C[C@H](OC(=O)CCC)[C@@]1(O)[C@H]2OC(=O)[C@@]1(C)O` [Thapsigargin], the remaining activity at 1.25 µM in experiment [1] (Well no.=1470) worked out at 98%; in experiment [1] (Well no.=3184), 107%. Besides, the remaining activity at 3.75 µM in experiment [2] (Well no.=1470) stood at 95.1%; in experiment [2] (Well no.=3184), 107%.
Take `Cn1cnc2c1c(=O)[nH]c(=O)n2C` [Theobromine]: the remaining activity at 1.25 µM is 96.7% in experiment [1] (Well no.=1479), 95.7% in experiment [1] (Well no.=3491), 101% in experiment [1] (Well no.=6387) and 106% in experiment [1] (Well no.=8067). The remaining activity at 3.75 µM in experiment [2] (Well no.=1479) amounted to 97.3%; in experiment [2] (Well no.=3491) it was 96.4%; in experiment [2] (Well no.=6387), 102%; in experiment [2] (Well no.=8067) it was 104%.
Consider `c1ccc2[nH]c(-c3cscn3)nc2c1` [Thiabendazole], for which the remaining activity at 1.25 µM in experiment [1] (Well no.=4622) is 100%. In addition, in experiment [2] (Well no.=4622), the remaining activity at 3.75 µM came out at 98.1%.
As for `Cc1ncc(C[n+]2csc(CCO)c2C)c(N)n1` [Thiamine HCl (Vitamin B1)], the remaining activity at 1.25 µM in experiment [1] (Well no.=4638) is 94.5%. Further, the remaining activity at 3.75 µM in experiment [2] (Well no.=4638) stood at 96.6%.
As to `CS(=O)(=O)c1ccc([C@H](O)[C@@H](COC(=O)CN)NC(=O)C(Cl)Cl)cc1` [Thiamphenicol glycinate], the remaining activity at 1.25 µM in experiment [1] (Well no.=2025) was 109%. In experiment [2] (Well no.=2025), the remaining activity at 3.75 µM came out at 108%.
For the compound `O=C(NCc1ccccc1)c1csc(Nc2ccncn2)n1` [Thiazovivin], in experiment [1] (Well no.=4867), the remaining activity at 1.25 µM was 100%. The remaining activity at 3.75 µM in experiment [2] (Well no.=4867) was 102%.
Regarding `NC(=S)c1ccc[n+]([C@@H]2O[C@H](COP(=O)([O-])OP(=O)(O)OC[C@H]3O[C@@H](n4cnc5c(N)ncnc54)[C@H](OP(=O)(O)O)[C@@H]3O)[C@@H](O)[C@H]2O)c1` [Thio-NADP sodium], in experiment [1] (Well no.=1481), the remaining activity at 1.25 µM was 98%. The remaining activity at 3.75 µM in experiment [2] (Well no.=1481) was determined as 93.5%.
Turning to `Nc1nc2[nH]cnc2c(=S)[nH]1` [Thioguanine], the remaining activity at 1.25 µM in experiment [1] (Well no.=4624) turned out to be 102%. Also, the remaining activity at 3.75 µM in experiment [2] (Well no.=4624) was determined as 102%.
Consider `S=C(NC1CCCCC1)N1CCC(c2cnc[nH]2)CC1` [Thioperamide maleate], for which the remaining activity at 1.25 µM in experiment [1] (Well no.=1234) turned out to be 102%. Besides, the remaining activity at 3.75 µM in experiment [2] (Well no.=1234) was found to be 104%.
